# ChEMBL document CHEMBL1129530, “Novel alpha-amino-3-hydroxy-5-methylisoxazole-4-propionate receptor antagonists: synthesis and structure-activity relationships of 6-(1H-imidazol-1-yl)-7-nitro-2,3(1H,4H)-pyrido[2,3-b]pyrazinedione and related compounds” (J Med Chem, 1996)
# Target: Glutamate receptor ionotropic, AMPA (Rattus norvegicus) (UniProt P19491+P19492+P19493+P19490)
# Test: Inhibition [3H]AMPA binding to ionotropic glutamate receptor AMPA in rat whole brain membranes in the presence of […] KSCN
# Format: cell membranes
# Conditions: not given
row,Structure (SMILES),inhibition [%]
1,CS(=O)(=O)c1ccc2nc(O)c(O)nc2n1,56
2,COc1ccc2nc(O)c(O)nc2n1,41
3,Oc1nc2cccnc2nc1O,22
4,CSc1ccc2nc(O)c(O)nc2n1,55
5,Cc1ccc2nc(O)c(O)nc2n1,31
6,Oc1nc2ccc(Cl)nc2nc1O,29
7,Oc1nc2ccc(-n3ccnc3)nc2nc1O,76
8,Oc1ccc2nc(O)c(O)nc2n1,37
9,Oc1nc2ccc(N3CCOCC3)nc2nc1O,32
10,Cc1cnc2nc(O)c(O)nc2c1,74
11,CNc1ccc2nc(O)c(O)nc2n1,30
12,Oc1nc2ccncc2nc1O,32
13,O=[N+]([O-])c1ccc2nc(O)c(O)nc2n1,66
14,Oc1nc2cncnc2nc1O,62

# Target: Glutamate receptor ionotropic, AMPA (Rattus norvegicus, UniProt P19490+P19491+P19492+P19493)
# Test: In vitro inhibition of the specific binding of [3H]AMPA to Ionotropic glutamate receptor AMPA in rat whole brain membranes in the presence of […] KSCN
# Format: cell membranes
# Conditions: not given
row,Structure (SMILES),Ki [nM]
1,O=[N+]([O-])c1cnc2nc(O)c(O)nc2c1,1100
2,O=[N+]([O-])c1cc2nc(O)c(O)nc2nc1N1CCOCC1,920
3,O=[N+]([O-])c1cc2nc(O)c(O)nc2nc1[N+](=O)[O-],860
4,O=[N+]([O-])c1cc2nc(O)c(O)nc2nc1-n1ccnc1,140
5,COc1nc2[nH]c(=O)c(=O)[nH]c2cc1[N+](=O)[O-],700

# Target: Glutamate receptor ionotropic, NMDA 1 (Rattus norvegicus) (UniProt P35439)
# Test: (§1) In vitro inhibition of the specific binding of [3H]Gly to N-methyl-D-aspartate glutamate receptor 1 in rat whole brain membranes except cerebellum
# Format: cell membranes
# Conditions: concentration not given here
row,Structure (SMILES),inhibition [%]
1,O=[N+]([O-])c1cc2nc(O)c(O)nc2nc1N1CCOCC1,14
2,O=[N+]([O-])c1cc2nc(O)c(O)nc2nc1-n1ccnc1,0
3,O=c1[nH]c2cc(-n3ccnc3)c([N+](=O)[O-])cc2[nH]c1=O,16

# Target: Glutamate receptor ionotropic, NMDA 1 (Rattus norvegicus, UniProt P35439)
# Test: as §1
# Format: cell membranes
# Conditions: not given
row,Structure (SMILES),Ki [nM]
1,O=[N+]([O-])c1cc2nc(O)c(O)nc2nc1[N+](=O)[O-],8000
2,COc1nc2[nH]c(=O)c(=O)[nH]c2cc1[N+](=O)[O-],370
